These results are taken from PMC3235725 (Biochemistry, 2011).

Molecules are shown by their SMILES. Like-named read-outs stand apart in the source and are kept apart here. Where only a bound is given, the exact number is not on record here.

The subject of one assay is BM-3(wt). Particulars: 2% (v/v) DMSO, 200 μM substrate, 500 nM enzyme; cited from earlier work.
In a further assay the test system is BM-3(A328V). Particulars: 2% (v/v) DMSO, 200 μM substrate, 500 nM enzyme; cited from earlier work.
Assay [1] concerns the target BMP(A328V), heme domain of P450BM-3 A328V mutant (Priestia megaterium, UniProt P14779, A329V). As to the kind of experiment: Substrate dissociation constants by UV-vis spectral titration, A328V heme domain. It is filed as binding, Bacillus megaterium. The settings on record: for Fold Enhancement of substrate affinity, A328V versus wild type: ratio of BMP(wt) KD to BMP(A328V) KD.

The target in assay [2] is BM-3(wt), wild-type P450BM-3 (Priestia megaterium, UniProt P14779). Description: Steady-state turnover, products quantified by GC-MS, wild-type holoenzyme. The assay is classed as biochemical, Bacillus megaterium. Particulars: 50 nM enzyme, 250 μM substrate, 50 mM KPi pH 7.4, 25°C.
Chain of BM-3(wt), wild-type P450BM-3 (P14779 whole entry): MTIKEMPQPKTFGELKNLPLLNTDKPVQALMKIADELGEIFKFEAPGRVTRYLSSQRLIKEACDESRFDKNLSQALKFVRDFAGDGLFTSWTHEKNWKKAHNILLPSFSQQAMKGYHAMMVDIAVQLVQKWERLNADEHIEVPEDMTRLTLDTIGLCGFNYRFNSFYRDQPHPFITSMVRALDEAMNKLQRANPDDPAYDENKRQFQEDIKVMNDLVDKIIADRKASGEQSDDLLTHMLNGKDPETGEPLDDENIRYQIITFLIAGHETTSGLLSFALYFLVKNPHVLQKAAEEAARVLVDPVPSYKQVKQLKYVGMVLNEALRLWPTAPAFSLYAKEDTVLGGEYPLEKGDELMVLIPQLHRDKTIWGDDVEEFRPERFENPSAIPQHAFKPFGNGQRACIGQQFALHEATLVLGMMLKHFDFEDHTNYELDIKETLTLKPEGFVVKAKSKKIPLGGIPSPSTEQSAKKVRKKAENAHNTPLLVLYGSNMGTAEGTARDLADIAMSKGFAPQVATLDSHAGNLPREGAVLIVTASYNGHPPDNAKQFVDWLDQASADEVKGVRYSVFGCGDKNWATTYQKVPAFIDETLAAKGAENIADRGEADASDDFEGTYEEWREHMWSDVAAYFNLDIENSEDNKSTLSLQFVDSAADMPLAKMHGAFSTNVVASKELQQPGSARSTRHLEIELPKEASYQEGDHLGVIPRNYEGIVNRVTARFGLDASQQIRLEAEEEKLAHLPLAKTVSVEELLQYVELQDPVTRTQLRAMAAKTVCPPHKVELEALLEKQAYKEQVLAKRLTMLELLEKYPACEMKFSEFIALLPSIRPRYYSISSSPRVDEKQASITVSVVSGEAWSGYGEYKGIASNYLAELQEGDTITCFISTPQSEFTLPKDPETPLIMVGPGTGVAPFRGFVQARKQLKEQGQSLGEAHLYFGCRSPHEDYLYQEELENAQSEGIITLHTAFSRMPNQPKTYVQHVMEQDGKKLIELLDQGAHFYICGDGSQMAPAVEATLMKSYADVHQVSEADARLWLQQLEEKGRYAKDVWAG
Assay [3] concerns the target BM-3(A328V), P450BM-3(A328V) (Priestia megaterium, UniProt P14779, A329V). As to the kind of experiment: Steady-state turnover, products quantified by GC-MS, A328V holoenzyme. It is filed as biochemical, Bacillus megaterium. Particulars: 50 nM enzyme, 250 μM substrate; for BM-3(A328V) turnover rate: 50 mM KPi pH 7.4, 25°C, GC-MS.
The target of assay [4] is BMP(wt), heme domain of P450BM-3 (Priestia megaterium, UniProt P14779). It is filed as binding, Bacillus megaterium.
Chain of BMP(wt), heme domain of P450BM-3 (P14779 2-472): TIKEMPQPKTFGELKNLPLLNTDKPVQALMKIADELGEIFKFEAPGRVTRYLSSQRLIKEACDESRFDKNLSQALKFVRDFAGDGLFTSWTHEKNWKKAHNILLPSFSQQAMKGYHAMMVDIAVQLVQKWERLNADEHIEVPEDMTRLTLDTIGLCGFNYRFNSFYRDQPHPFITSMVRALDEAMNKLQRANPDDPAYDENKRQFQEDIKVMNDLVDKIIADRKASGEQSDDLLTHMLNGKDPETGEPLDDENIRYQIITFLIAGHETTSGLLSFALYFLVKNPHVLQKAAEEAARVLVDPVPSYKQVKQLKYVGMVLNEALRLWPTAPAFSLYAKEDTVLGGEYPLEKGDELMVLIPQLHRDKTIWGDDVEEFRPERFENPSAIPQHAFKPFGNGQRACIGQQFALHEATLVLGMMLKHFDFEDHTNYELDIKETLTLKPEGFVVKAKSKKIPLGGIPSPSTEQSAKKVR
For another assay, the target named is P450BM-3 wild-type (Priestia megaterium, UniProt P14779). As to the kind of experiment: Regiospecificity of hydroxylation, product distribution by GC/MS, wild type. It is filed as biochemical, Bacillus megaterium. The settings on record: wild-type enzyme, 500 μM substrate, 50 nM enzyme, 250 μM NADPH, run to completion.
Chain of P450BM-3 wild-type (P14779 whole entry): as the sequence (P14779 whole entry) above
Another assay deals with P450BM-3(A328V) (Priestia megaterium, UniProt P14779, A329V). As to the kind of experiment: Regiospecificity of hydroxylation, product distribution by GC/MS, A328V. The settings on record: A328V mutant, 500 μM substrate, 50 nM enzyme, 250 μM NADPH, run to completion. The assay is classed as biochemical, Bacillus megaterium.
Chain of P450BM-3(A328V) (P14779 whole entry A329V): as the sequence (P14779 whole entry) above, with A329V counted along it
The mark [5] stands for this setting: read-out: BMP(A328V) Dissociation Constant, 50 mM KPi pH 7.4, room temperature, 1 μM P450, UV-vis titration.

Chain of BMP(A328V), heme domain of P450BM-3 A328V mutant (P14779 2-472 A329V): as the sequence (P14779 2-472) above, with A328V counted along it
Chain of BM-3(A328V), P450BM-3(A328V) (P14779 whole entry A329V, the tested form may be a part): as the sequence (P14779 whole entry) above, with A329V counted along it

In the case of `CC(=O)CC/C=C(/C)CCC=C(C)C` [Nerylacetone], in the assay with BM-3(wt), the “BM-3(wt) turnover rate” value is 155 ± 7 μmol/min/μmol. Moreover, in the assay with BM-3(A328V), the “BM-3(A328V) turnover rate” value is reported as 338 ± 10 μmol/min/μmol.
For the compound `CCCCCCCCCCCCCCCC(=O)N[C@@H](CCC(=O)O)C(=O)O` [PalmGlu, N-palmitoyl-L-glutamate], the “Fold Enhancement of substrate affinity, A328V versus wild type” value (from here on “Fold Enhancement of substrate affinity”) in assay [1] was found to be 9.0. Also, in assay [1] (setting [5]), the Kd was found to be 410 ± 60 nM. Also, the “BM-3(wt) turnover rate” value in assay [2] is reported as 485 ± 15 μmol/min/μmol. Moreover, in assay [3], the “Fold Enhancement of turnover (rate A328V divided by rate wild type)” value worked out at 8.2 and the “BM-3(A328V) turnover rate” value was 3960 ± 280 μmol/min/μmol.
On to `CCCCCCCCCCCCCCCC(=O)N[C@@H](CC(C)C)C(=O)O` [PalmLeu], for which, in assay [1] (setting [5]), the Kd is < 30 nM. Moreover, in assay [2], the “BM-3(wt) turnover rate” value was 1155 ± 20 μmol/min/μmol. Besides, in assay [3], the “Fold Enhancement of turnover (rate A328V divided by rate wild type)” value came to 3.4 and the “BM-3(A328V) turnover rate” value is on record as 3900 ± 320 μmol/min/μmol.
With `CCCCCCCCCCCCCCCC(=O)NCC(=O)O` [PalmGly, N-palmitoylglycine], the “Fold Enhancement of substrate affinity” value in assay [1] stood at 7.1. Besides, the Kd in assay [1] (setting [5]) was 45 ± 14 nM. The “BM-3(wt) turnover rate” value in assay [2] is given as 1875 ± 30 μmol/min/μmol. Also, in assay [3], the “Fold Enhancement of turnover (rate A328V divided by rate wild type)” value is reported as 2.9 and the “BM-3(A328V) turnover rate” value worked out at 5500 ± 600 μmol/min/μmol.
In the case of `CCCCCCCCCCCCCCCC(=O)O` [Palmitate, palmitic acid], in assay [4], the Kd came out at 1300 ± 170 nM. For the same compound, in assay [1], the Kd amounted to 160 ± 20 nM and the “Fold Enhancement of substrate affinity” value is on record as 8.1. For the same compound, in assay [2], the “BM-3(wt) turnover rate” value is 1480 ± 35 μmol/min/μmol. Also, in assay [3], the “Fold Enhancement of turnover (rate A328V divided by rate wild type)” value is listed as 2.3 and the “BM-3(A328V) turnover rate” value came to 3355 ± 95 μmol/min/μmol. Also, on P450BM-3 wild-type, the “ω-2 hydroxy product, percent of total oxidation products” value came to 46%. Besides, the “ω-1 hydroxy product, percent of total oxidation products” value at P450BM-3(A328V) came to 72%.
Consider `CCCCCCCCCCCCCCCC(=O)N[C@@H](CCSC)C(=O)O` [PalmMet, N-palmitoyl-L-methionine], for which, in assay [1] (setting [5]), the Kd is < 30 nM. Further, the “BM-3(wt) turnover rate” value in assay [2] is reported as 1690 ± 75 μmol/min/μmol. Moreover, in assay [3], the “Fold Enhancement of turnover (rate A328V divided by rate wild type)” value came out at 2.6 and the “BM-3(A328V) turnover rate” value turned out to be 4400 ± 145 μmol/min/μmol.
Consider `CCCCCCCCCCCCCCCC(=O)N[C@@H](CCC(N)=O)C(=O)O` [PalmGln, N-palmitoyl-L-glutamine], for which the “Fold Enhancement of substrate affinity” value in assay [1] is on record as 2.7. Besides, in assay [1] (setting [5]), the Kd turned out to be 74 ± 5 nM. The “BM-3(wt) turnover rate” value in assay [2] stood at 610 ± 25 μmol/min/μmol. For the same compound, in assay [3], the “Fold Enhancement of turnover (rate A328V divided by rate wild type)” value was 7.4 and the “BM-3(A328V) turnover rate” value worked out at 4500 ± 500 μmol/min/μmol.
